Laboratory results: patent US10973826B2, “Antibody conjugates comprising toll-like receptor agonist” (Novartis AG, priority 2015, dated 2021)

Experiment: In vitro stability of conjugates in mouse serum (LC-MS: succinimide ring hydrolysis, deconjugation)
Type: in vitro ADME
Conditions: conjugates of the compound with anti-HER2 mAb2
Experimental: The stability of the bond formed between maleimide containing payloads and Cys residues of the antibody is enhanced by the hydrolysis of the succinimide ring formed in this reaction. The effects of succinimide ring hydrolysis on the stability of antibody conjugates prepared with agonist compounds of the invention were studied after in vitro incubation in mouse serum. Mass changes resulting from payload deconjugation and the hydrolysis of the succinimide ring of maleimide payloads conjugated to antibodies were monitored by LC-MS. The hydrolysis of the succinimide ring has been reported to be stimulated by certain conditions such as high pH, high temperature, or high salts (J. Am. Chem. Soc. 1955, 77: 3922; Biochemistry 1976, 15: 2836; Biochem. J. 1979, 179: 191-197; J Pharm Sci. 1984, 73:1767-1771; Bioorg. Med. Chem. Lett. 17: 6286-6289, 2007). To probe the in vitro stability of conjugates, anti-HER2 antibody mAb2 conjugates were incubated at 37° C. in 50-70% mouse serum. […] The light chain, heavy chain Fab, and heavy chain Fc fragments were then analyzed by ESI-MS. The relative populations of deconjugated antibody, conjugates with attached payload with hydrolyzed succinimide ring, and conjugates with attached payload with intact succinimide ring, were calculated from the relative MS intensities of the corresponding conjugate species. […]

Row | Compound | conjugate stability (deconjugation, succinimide ring hydrolysis)
1 | CCCCCNc1nc(N)nc2ccn(Cc3ccc(CN4CCN(CCN5C(=O)C=CC5=O)CC4)cc3OC)c12 [Compound C-5, 1-(2-(4-(4-((2-amino-4-(pentylamino)-5H-pyrrolo[3,2-d]pyrimidin-5-yl)methyl)-3-methoxybenzyl)piperazin-1-yl)ethyl)-1H-pyrrole-2,5-dione] | improved conjugate stability
2 | CCCCCNc1nc(N)nc2ccn(Cc3ccc(CN4CCN(C(=O)CCOCCOCCNC(=O)CN5C(=O)C=CC5=O)CC4)cc3OC)c12 [Compound C-21, N-(2-(2-(3-(4-(4-((2-amino-4-(pentylamino)-5H-pyrrolo[3,2-d]pyrimidin-5-yl)methyl)-3-methoxybenzyl)piperazin-1-yl)-3-oxopropoxy)ethoxy)ethyl)-2-(2,5-dioxo-2,5-dihydro-1H-pyrrol-1-yl)acetamide] | improved conjugate stability
